One data set deals with Hepatitis B Virus (HBV). In words: Inhibition of hepatitis B virus replication in HepG2.2.15 cell culture, quantitative PCR. The class given is cell-based. The conditions noted are these: read-out: EC50(μM) in HBV.
Data set [1] in a line: Determination of cytotoxicity (MTT) in HepG2.2.15 cells. The following applies: human.
For another data set, the system named is HBV. The class given is in vivo, HBV transgenic mice (FVB strain). The conditions noted are these: effect = blood does not contain HBV DNA.
For a further data set, the system named is HepG2.2.15. In words: Determination of cytotoxicity (MTT) in HepG2.2.15 cells. The conditions noted are these: read-out: CC50(μM) in HepG2.2.15; MTT, 10th day from treatment with drug.
[2] abbreviates: Hepatitis B virus, 240 h, HepG2.2.15 culture medium, 10 days after treatment with drug, PCR of HBV DNA.
[3] abbreviates: subcutaneous, 10 mg/kg/day for 9 days.

Read-outs that look alike come from different tables or passages of the source. Some results are limits rather than exact numbers.

As usually defined, the EC50 is the concentration at which the effect is half-maximal. Usually CC50 stands for the concentration that lowers cell viability or growth by half. `Nc1nc(O)c2ncn(CC3(OCP(=O)(OCC(F)(F)F)OCC(F)(F)F)CC3)c2n1` [Compound 45, bis(2,2,2-trifluoroethyl)({1-[(2-amino-6-hydroxy-9H-purin-9-yl)methyl]cyclopropyl}oxy)methylphosphonate]: in the data set on Hepatitis B Virus (HBV) (setting [2]), the EC50 is more than 0.5 µM. The CC50 at 10 days in data set [1] was more than 1000 µM.

In the case of `Cc1nc(N)nc2c1ncn2CC1(OCP(=O)(O)O)CC1` [Compound 25, ({1-[(2-amino-6-methyl-9H-purin-9-yl)methyl]cyclopropyl}oxy)methyl phosphonic acid], in the data set with Hepatitis B Virus (HBV) (setting [2]), the EC50 is more than 5 µM. This compound also yielded a CC50 at 10 days in data set [1] of more than 1000 µM.

For the compound `Cc1ccc(Sc2nc(N)nc3c2ncn3CC2(OCP(=O)(O)O)CC2)cc1` [Compound 66, {[1-({2-amino-6-[(4-methylphenyl)sulfanyl]-9H-purin-9-yl}methyl)cyclopropyl]oxy}methylphosphonic acid], the EC50 in the data set with Hepatitis B Virus (HBV) (setting [2]) was more than 0.1 µM. In addition, the “Result: number of mice showing pharmacological effect/number of total mice” value with HBV (setting [3]) is recorded as 4/4. In data set [1], this compound registered a CC50 at 10 days of more than 1000 µM.

As to `Nc1nc(N2CCOCC2)c2ncn(CC3(OCP(=O)(O)O)CC3)c2n1` [Compound 37, [(1-{[2-amino-6-(4-morpholinyl)-9H-purin-9-yl]methyl}cyclopropyl)oxy]methyl phosphonic acid], the EC50 with Hepatitis B Virus (HBV) (setting [2]) was more than 5 µM. This compound displayed a CC50 at 10 days in data set [1] of more than 1000 µM.

As to `CN1CCN(c2nc(N)nc3c2ncn3CC2(OCP(=O)(O)O)CC2)CC1` [Compound 41, [(1-{[2-amino-6-(4-methyl-1-piperazinyl)-9H-purin-9-yl]methyl}cyclopropyl)oxy]methylphosphonic Acid], the EC50 with Hepatitis B Virus (HBV) (setting [2]) was more than 1 µM. Moreover, the CC50 at 10 days in data set [1] is more than 1000 µM.

On to `Cc1cn(CC2(OCP(=O)(O)O)CC2)c(=O)[nH]c1=O` [Compound 31, [(1-{[5-methyl-2,4-dioxo-3,4-dihydro-1(2H)-pyrimnidinyl]methyl}cyclopropyl)oxy]methylphosphonic acid], for which the EC50 in the data set with Hepatitis B Virus (HBV) (setting [2]) was more than 50 µM. The same compound showed a CC50 at 10 days in data set [1] of more than 1000 µM.

For `CC(C)(C)C(=O)OCOP(=O)(COC1(Cn2cnc3cnc(N)nc32)CC1)OCOC(=O)C(C)(C)C` [Compound 10, 3-[({1-[(2-amino-9H-purin-9-yl)methyl]cyclopropyl}oxy)methyl]-8,8-dimethyl-3,7-dioxo-2,4,6-trioxa-3 ^5-phosphanon-1-yl pivalate], the EC50 in the data set with Hepatitis B Virus (HBV) (Hepatitis B virus, HepG2.2.15, 240 h) is more than 0.08 µM. The “Result: number of mice showing pharmacological effect/number of total mice” value with HBV (oral, 0.4 mg/kg/day for 9 days) is on record as 5/6; in the data set with HBV (oral, 2 mg/kg/day for 9 days) it was 4/4. The compound further returned a CC50 at 10 days in data set [1] of more than 1000 µM.

For `CN(C)c1nc(N)nc2c1ncn2CC1(OCP(=O)(O)O)CC1` [Compound 15, [(1-{[2-amino-6-(dimethylamino)-9H-purin-9-yl]methyl}cyclopropyl)oxy]methyl phosphonic acid], in the data set on Hepatitis B Virus (HBV) (setting [2]), the EC50 was more than 0.8 µM. In data set [1], the CC50 at 10 days is more than 1000 µM.

`CC1CC1(Cn1cnc2c(O)nc(N)nc21)OCP(=O)(O)O` (stereo not drawn) [Compound 97, ({1-[(2-amino-6-hydroxy-9H-purin-9-yl)methyl]-2-methylcyclopropyl}oxy)methylphosphonic acid]: the EC50 in the data set with Hepatitis B Virus (HBV) (setting [2]) was more than 0.05 µM. For the same compound, the “Result: number of mice showing pharmacological effect/number of total mice” value with HBV (setting [3]) is reported as 4/4. Besides, in data set [1], the CC50 at 10 days is more than 1000 µM.

Consider `CC(C)(C)OC(=O)OCOP(=O)(COC1(Cn2cnc3cnc(N)nc32)CC1)OCOC(=O)OC(C)(C)C` [Compound 69, bis{[(t-butoxycarbonyl)oxy]methyl}({1-[(2-amino-9H-purin-9-yl)methyl]cyclopropyl}oxy)methylphosphonate], for which the concentration giving a half-maximal response (EC50) in the data set on Hepatitis B Virus (HBV) (setting [2]) was more than 1 µM. Moreover, in data set [1], the CC50 at 10 days is more than 1000 µM.

Take `Nc1nc(O)c2ncn(CC3(OCP(=O)(O)O)CC3)c2n1` [Compound 5, ({1-[(2-amino-6-hydroxy-9H-purin-9-yl)methyl]cyclopropyl}oxy)methyl phosphonic acid]: the EC50 in the data set with Hepatitis B Virus (HBV) (setting [2]) is more than 0.1 µM. This compound also showed a CC50 at 10 days in data set [1] of more than 1000 µM.

Turning to `CC(C)Nc1nc(N)nc2c1ncn2CC1(OCP(=O)(O)O)CC1` [Compound 17, [(1-{[2-amino-6-(isopropylamino)-9H-purin-9-yl]methyl}cyclopropyl)oxy]methyl phosphonic acid], the EC50 in the data set on Hepatitis B Virus (HBV) (setting [2]) is more than 0.5 µM. This compound also had a CC50 at 10 days in data set [1] of more than 1000 µM.

Take `Cc1ccc(Sc2nc(N)nc3c2ncn3CC2(OCP(=O)(OCC(F)(F)F)OCC(F)(F)F)CC2)cc1` [Compound 62, bis(2,2,2-trifluoroethyl){[1-({2-amino-6-[(4-methylphenyl)sulfanyl]-9H-purin-9-yl}methyl)cyclopropyl]oxy}methylphosphonate]: the EC50 in the data set on Hepatitis B Virus (HBV) (setting [2]) was more than 0.5 µM. The CC50 at 10 days in data set [1] was more than 1000 µM.

In the case of `CCNc1nc(N)nc2c1ncn2CC1(OCP(=O)(O)O)CC1` [Compound 13, ({1-[(2-amino-6-ethylamino-9H-purin-9-yl)methyl]cyclopropyl}oxy)methylphosphonic Acid], the EC50 in the data set with Hepatitis B Virus (HBV) (setting [2]) was more than 1 µM. The compound also yielded a CC50 at 10 days in data set [1] of more than 1000 µM.

Turning to `Nc1ncc2ncn(CC3(OCP(=O)(O)O)CC3)c2n1` [Compound 9, ({1-[(2-amino-9H-purin-9-yl)methyl]cyclopropyl}oxy)methylphosphonic acid], the EC50 in the data set on Hepatitis B Virus (HBV) (setting [2]) is more than 0.3 µM. Also, in data set [1], the CC50 at 10 days is more than 1000 µM.

Turning to `CC(C)(C)C(=O)OCOP(=O)(COC1(Cn2cnc3c(N)ncnc32)CC1)OCOC(=O)C(C)(C)C` [Compound 2, 3-[({1-[(6-amino-9H-purin-9-yl)methyl]cyclopropyl}oxy)methyl]-8,8-dimethyl-3,7-dioxo-2,46-trioxa-3 ^5-phosphanon-1-yl pivalate], the concentration for a half-maximal effect (EC50) in the data set on Hepatitis B Virus (HBV) (setting [2]) was more than 0.1 µM. Further, the CC50 at 10 days in data set [1] is more than 1000 µM.

With `Nc1ncnc2c1ncn2CC1(OCP(=O)(O)O)CC1` [Compound 1, ({1-[(6-amino-9H-purin-9-yl)methyl]cyclopropyl}oxy)methylphosphonic acid], the EC50 in the data set with Hepatitis B Virus (HBV) (setting [2]) is more than 1 µM. In data set [1], this compound returned a CC50 at 10 days of more than 1000 µM.

Consider `Nc1nc(NC2CC2)c2ncn(CC3(OCP(=O)(O)O)CC3)c2n1` [Compound 11, ({1-[(2-amino-6-cyclopropylamino-9H-purin-9-yl)methyl]cyclopropyl}oxy)meth-ylplhosplhonic acid], for which the EC50 in the data set on Hepatitis B Virus (HBV) (setting [2]) was more than 20 µM. The same compound registered a CC50 at 10 days in data set [1] of more than 1000 µM.

On to `Nc1nc(Cl)c2ncn(CC3(OCP(=O)(OCC(F)(F)F)OCC(F)(F)F)CC3)c2n1` [Compound 46, bis(2,2,2-trifluoroethyl)({1-[(2-amino-6-chloro-9H-purin-9-yl)methyl]cyclopropyl}oxy)methylphosphonate], for which, in the data set with Hepatitis B Virus (HBV) (setting [2]), the EC50 was more than 1 µM. The compound also showed a CC50 at 10 days in data set [1] of more than 1000 µM.

With `CCOc1nc(N)nc2c1ncn2CC1(OCP(=O)(O)O)CC1` [Compound 23, ({1-[(2-amino-6-ethoxy-9H-purin-9-yl)methyl]cyclopropyl}oxy)methyl phosphonic acid], the EC50 with Hepatitis B Virus (HBV) (setting [2]) was more than 0.1 µM. The “Result: number of mice showing pharmacological effect/number of total mice” value in the data set with HBV (setting [3]) is given as 4/4. The compound further came in with a CC50 at 10 days in data set [1] of more than 1000 µM.

On to `Nc1nc(Cl)c2ncn(CC3(OCP(=O)(O)O)CC3)c2n1` [Compound 3, ({1-[(2-amino-6-chloro-9H-purin-9-yl)methyl]cyclopropyl}oxy)methylphosphonic acid], for which the EC50 in the data set with Hepatitis B Virus (HBV) (setting [2]) is more than 0.5 µM. The CC50 at 10 days in data set [1] was more than 1000 µM.

`Nc1nc(N)c2ncn(CC3(OCP(=O)(O)O)CC3)c2n1` [Compound 19, ({1-[(2,6-diamino-9H-purin-9-yl)methyl]cyclopropyl}oxy)methylphosphonic acid]: the EC50 in the data set on Hepatitis B Virus (HBV) (setting [2]) is more than 0.3 µM. For the same compound, the CC50 at 10 days in data set [1] was more than 1000 µM.

Take `Nc1ncnc2c1ncn2CCOCP(=O)(O)O` [PMEA, reference compound]: the EC50 with Hepatitis B Virus (HBV) (HepG2.2.15 culture medium, 10 days after treatment with drug, PCR of HBV DNA) came out at 5 µM. The CC50 in the data set on HepG2.2.15 was more than 500 µM.

Turning to `CC1CC1(Cn1cnc2cnc(N)nc21)OCP(=O)(O)O` (stereo not drawn) [Compound 98, ({1-[(2-amino-9H-purin-9-yl)methyl]-2-methylcyclopropyl}oxy)methylphosphonic acid], the EC50 in the data set with Hepatitis B Virus (HBV) (setting [2]) was more than 1 µM. Also, the “Result: number of mice showing pharmacological effect/number of total mice” value in the data set on HBV (setting [3]) was 4/4. Further, in data set [1], the CC50 at 10 days is more than 1000 µM.

(Values after patent publication US20040063668A1, “Novel acyclic nucleoside phosphonate derivatives, salts thereof and process for the preparation of the same” (priority 2001, published 2004).)
